Laboratory results: patent publication US20240025903A1, “Bicyclic Compounds and Uses Thereof for the Treatment of Diseases” (Athira Pharma, Inc., priority 2020, published 2024)

Columns and labels:
[1] = In vitro stability in human plasma; type: in vitro ADME; settings: 5 μM, 37° C.
Protocol: (§1) Bioavailability can be estimated by compound stability when exposed to conditions in the body. As an initial assessment of stability properties in a variety of conditions present in animals, exemplary compounds were tested for stability in a battery of simulated body compartments. Compounds were tested for stability in the following solutions: simulated gastric fluid (SGF: 34.2 mM NaCl, pH 1.2), simulated gastric fluid with the digestive enzyme pepsin (SGF+Enzyme: SGF with 3.2 mg/ml pepsin), simulated intestinal fluid with the mixture of enzymes in porcine pancreatin (SIF+Enzyme: 28.7 mM NaH2PO4, 105.7 mM NaCl, pH 6.8, 10 mg/ml pancreatin), rat plasma, and human plasma.
(§2) Test compounds were incubated at a final concentration of 5 μM in the above solutions at 37° C. with samples removed at the following time points: 0, 1, 2, and 4 hours. Reactions were stopped and prepared for quantification by addition of excess quench solution containing an internal standard (acetonitrile, 200 ng/mL bucetin). Test compound and internal standard in each sample was quantified by LC-MS/MS, and after internal normalization to bucetin, test compound concentration was expressed as a percentage of concentration at the 0-hour time point. Stability in the relevant test solution was then determined by the percent remaining at the 4-hour time point.

[2] = biological target: T1, HGF/MET system (Homo sapiens, UniProt P08581+P14210); assay: Phospho-MET ELISA; type: cell-based; settings: HEK293 cells, 1 ng/mL recombinant HGF, 15 minutes, pMET ELISA
T1 construct: HEK293 cells were prepared by passage into 6-well multi-plates; endogenous in cells; host or cells: HEK293
T1 sequence (P08581 308-1390 limits assumed): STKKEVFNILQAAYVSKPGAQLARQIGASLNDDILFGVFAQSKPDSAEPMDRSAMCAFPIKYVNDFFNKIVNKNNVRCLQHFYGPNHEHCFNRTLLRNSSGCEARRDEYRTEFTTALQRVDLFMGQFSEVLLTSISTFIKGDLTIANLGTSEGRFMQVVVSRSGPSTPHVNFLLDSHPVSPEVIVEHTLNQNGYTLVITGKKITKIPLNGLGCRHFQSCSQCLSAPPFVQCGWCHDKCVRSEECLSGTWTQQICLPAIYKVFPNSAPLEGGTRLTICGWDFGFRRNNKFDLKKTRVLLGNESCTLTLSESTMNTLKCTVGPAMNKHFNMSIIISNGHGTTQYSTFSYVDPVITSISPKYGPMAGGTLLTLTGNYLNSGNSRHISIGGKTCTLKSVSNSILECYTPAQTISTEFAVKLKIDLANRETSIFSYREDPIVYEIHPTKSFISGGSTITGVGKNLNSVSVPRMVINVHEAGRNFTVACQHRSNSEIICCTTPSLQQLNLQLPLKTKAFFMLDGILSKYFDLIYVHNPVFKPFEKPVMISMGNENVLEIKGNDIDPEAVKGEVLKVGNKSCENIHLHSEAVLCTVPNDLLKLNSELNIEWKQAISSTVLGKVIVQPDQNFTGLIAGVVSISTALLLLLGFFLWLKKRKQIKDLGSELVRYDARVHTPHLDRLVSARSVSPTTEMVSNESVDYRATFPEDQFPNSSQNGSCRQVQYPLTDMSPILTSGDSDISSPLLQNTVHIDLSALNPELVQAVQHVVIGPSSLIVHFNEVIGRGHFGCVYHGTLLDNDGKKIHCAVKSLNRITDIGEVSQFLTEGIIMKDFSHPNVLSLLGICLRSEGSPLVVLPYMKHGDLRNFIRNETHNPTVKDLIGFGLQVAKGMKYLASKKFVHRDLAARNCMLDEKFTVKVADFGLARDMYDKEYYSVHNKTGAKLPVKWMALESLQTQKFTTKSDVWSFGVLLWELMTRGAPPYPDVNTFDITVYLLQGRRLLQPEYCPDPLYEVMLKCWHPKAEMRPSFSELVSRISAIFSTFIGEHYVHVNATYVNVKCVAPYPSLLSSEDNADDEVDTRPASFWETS
T1 sequence (P14210 32-494 limits assumed): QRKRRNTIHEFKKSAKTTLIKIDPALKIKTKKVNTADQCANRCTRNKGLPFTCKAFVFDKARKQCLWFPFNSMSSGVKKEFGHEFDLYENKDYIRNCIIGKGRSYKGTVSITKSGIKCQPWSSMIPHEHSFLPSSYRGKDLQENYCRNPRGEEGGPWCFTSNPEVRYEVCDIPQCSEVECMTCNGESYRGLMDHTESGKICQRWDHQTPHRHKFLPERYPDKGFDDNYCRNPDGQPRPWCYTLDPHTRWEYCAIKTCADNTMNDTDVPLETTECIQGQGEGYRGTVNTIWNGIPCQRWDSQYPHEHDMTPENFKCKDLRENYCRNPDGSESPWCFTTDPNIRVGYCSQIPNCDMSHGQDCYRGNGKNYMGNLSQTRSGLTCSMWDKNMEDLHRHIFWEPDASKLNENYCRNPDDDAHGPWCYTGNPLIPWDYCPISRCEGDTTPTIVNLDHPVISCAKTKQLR
In short: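 Serum-starved (≥8 h) HEK293 cells treated with compound plus 1 ng/mL recombinant HGF for 15 min at 37° C in triplicate, then lysed in RIPA. Equal protein (50–100 μg, BCA-normalized) run in pMET sandwich ELISA, A450 read. Responses scaled 1–10 between 1 ng/mL and 10 ng/mL HGF means, using peak efficacy.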

[3] = In vitro stability in rat plasma; type: in vitro ADME; settings: 5 μM, 37° C.
Protocol: as §1, §2

[4] = In vitro stability in simulated gastric and intestinal fluids; type: in vitro ADME; settings: 37° C.; for SGF + Enz (compound remaining after 4 hours): SGF with 3.2 mg/ml pepsin; for SGF + Enz (compound remaining after 4 hours) / SIF (compound remaining after 4 hours): 5 μM; for SGF (compound remaining after 4 hours): simulated gastric fluid pH 1.2, 5 μM; for SIF (compound remaining after 4 hours): simulated intestinal fluid pH 6.8 with 10 mg/ml pancreatin
Protocol: as §1, §2

[5] = Parallel artificial membrane permeability assay (PAMPA); type: in vitro ADME; settings: PBS, room temperature
In short: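 Donor wells held compound at 200 μM in PBS (5 replicates) against PBS acceptor wells, incubated 5 h at room temperature. Donor and acceptor concentrations were read by UV against a 0–200 μM standard curve. Pe and membrane retention were calculated from the stated equations.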

[6] = Turbidimetric solubility assay; type: physicochemical; settings: aqueous buffer, kinetic from dmso stock, PBS, 37° C., absorbance 620 nm

Papp at 5 h, 200 µM [5] | solubility at 2 h [6] | SMILES | Human Plasma (compound remaining after 4 hours) [1] | Potency (augmentation of MET phosphorylation) [2] | Rat Plasma (compound remaining after 4 hours) [3] | SGF + Enz (compound remaining after 4 hours) [4] | SGF (compound remaining after 4 hours) [4] | SIF (compound remaining after 4 hours) [4]
< 2 ×10⁻⁶ cm/s | > 300 µM | CCC(C)CN1CC2N(Cc3ccc(OC(F)F)cc3)CCC(=O)N2[C@@H](C)C1=O (stereo partly drawn) [Compound 6a] | ++ (++ indicates 40-79% compound remaining after 4 hours) | + (+ indicates maximum potency at or above 100 nM) | +++ (+++ indicates 80-99% compound remaining after 4 hours) | + (+ indicates 20-39% compound remaining after 4 hours) | +++ (+++ indicates 80-99% compound remaining after 4 hours) | ++ (++ indicates 40-79% compound remaining after 4 hours)
> 2 ×10⁻⁶ cm/s | > 300 µM | CCC(C)CN1CC2N(C(=O)c3ccc(C(F)(F)F)cc3)CCC(=O)N2[C@@H](C)C1=O (stereo partly drawn) [Compound 1a] | ++ (++ indicates 40-79% compound remaining after 4 hours) | ++++ (++++ indicates maximum potency at or above 0.1 nM) | ++ (++ indicates 40-79% compound remaining after 4 hours) | ++++ (++++ indicates 100% compound remaining after 4 hours) | ++++ (++++ indicates 100% compound remaining after 4 hours) | ++++ (++++ indicates 100% compound remaining after 4 hours)
< 2 ×10⁻⁶ cm/s | > 300 µM | C=CCCN1CC2N(C(=O)c3ccc(C(F)(F)F)cc3)CCC(=O)N2C(C)C1=O (stereo not drawn) [Compound 22] | +++ (+++ indicates 80-99% compound remaining after 4 hours) | +++ (+++ indicates maximum potency at or above 1 nM) | +++ (+++ indicates 80-99% compound remaining after 4 hours) | +++ (+++ indicates 80-99% compound remaining after 4 hours) | +++ (+++ indicates 80-99% compound remaining after 4 hours) | +++ (+++ indicates 80-99% compound remaining after 4 hours)
